{
  "source": "PubChem BioAssay (NCI)",
  "tested_on": "MDA-MB-468 breast",
  "experiment": "DTP human tumour cell line panel, 48 h",
  "note": "Where “and” joins values, the source holds several entries; their conditions need not be identical. Identical values can stand only once.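 Cultured in 96-well plates, cells were exposed to test compound for 48 hours across five concentrations. GI50 = concentration required for 50% inhibition of growth. TGI: concentration producing complete growth inhibition.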",
  "data": [
    {"smiles": "O=C1C=CC[C@H](/C=C/c2ccccc2)O1", "values": [
      {"measurement": "GI50", "value": 1.94, "unit": "µM"},
      {"measurement": "TGI", "value": 11.5, "unit": "µM"}
    ]},
    {"smiles": "COc1cc(NC(=O)CSc2nc3ccc(C)cc3c(=O)n2Cc2ccccc2)cc(OC)c1OC", "values": [
      {"measurement": "GI50", "value": 4.11, "unit": "µM"},
      {"measurement": "TGI", "value": 68.1, "unit": "µM"}
    ]},
    {"smiles": "COc1ccc(/C=C(\\C#N)n2nnc3ccccc32)cc1", "values": [
      {"measurement": "GI50", "value": 0.272, "unit": "µM"},
      {"measurement": "TGI", "value": 4.1, "unit": "µM"}
    ]},
    {"smiles": "COc1cc(/C=N/NC(=O)c2cnn3c2NC(c2ccccc2)C3)ccc1Oc1ccccc1", "note": "(stereo not given)", "values": [
      {"measurement": "GI50", "value": 0.648, "unit": "µM"},
      {"measurement": "TGI", "value": 5.72, "unit": "µM"}
    ]},
    {"smiles": "CC(=C(c1ccc(OCCN2CCCC2)cc1)c1ccc(OCCN2CCCC2)cc1)c1ccc(Cl)cc1", "values": [
      {"measurement": "GI50", "value": 2.37, "unit": "µM"},
      {"measurement": "TGI", "value": 5.01, "unit": "µM"}
    ]},
    {"smiles": "O=C(c1ccccc1)C(Br)C(Br)c1cccc([N+](=O)[O-])c1", "note": "(stereo not given)", "values": [
      {"measurement": "GI50", "value": 1.47, "unit": "µM"},
      {"measurement": "TGI", "value": 3.08, "unit": "µM"}
    ]},
    {"smiles": "C=C(C)[C@@H]1CC[C@]2(C)[C@H](CC=C3[C@@H]4[C@@H](C)[C@H](C)CC[C@]4(C(N)=O)CC[C@]32C)[C@@]1(C)CCC#N", "values": [
      {"measurement": "GI50", "value": 3.15, "unit": "µM"},
      {"measurement": "TGI", "value": 12.8, "unit": "µM"}
    ]},
    {"smiles": "COc1ccccc1N1CCN(CCc2c[nH]c3cc4c(cc23)OCO4)CC1", "values": [
      {"measurement": "GI50", "value": 15.8, "unit": "µM"},
      {"measurement": "TGI", "value": 44.5, "unit": "µM"}
    ]},
    {"smiles": "Nc1nc(N)c2c(n1)NC(c1ccc(F)cc1)C1CCc3ccccc3C1=N2", "note": "(stereo not given)", "values": [
      {"measurement": "GI50", "value": 1.43, "unit": "µM"},
      {"measurement": "TGI", "value": 6.7, "unit": "µM"}
    ]},
    {"smiles": "CC(C)COCC(CN(Cc1ccccc1)c1ccccc1)N1CCCC1", "note": "(stereo not given)", "values": [
      {"measurement": "GI50", "value": 1.82, "unit": "µM"},
      {"measurement": "TGI", "value": 6.56, "unit": "µM"}
    ]},
    {"smiles": "N#CC1=C(N)Oc2c(sc3c(Br)cccc23)C1c1ccc(Br)cc1", "note": "(stereo not given)", "values": [
      {"measurement": "GI50", "value": 0.763, "unit": "µM"},
      {"measurement": "TGI", "value": 11.4, "unit": "µM"}
    ]},
    {"smiles": "COc1ccc(S(=O)(=O)Nc2cc(/C=C\\c3cc(OC)c(OC)c(OC)c3)ccc2OC)cc1", "values": [
      {"measurement": "GI50", "value": 0.168, "unit": "µM"},
      {"measurement": "TGI", "value": "> 100", "unit": "µM"}
    ]},
    {"smiles": "CC1(O)CC(c2nc(-c3ccc4ccc(-c5ccccc5)nc4c3)c3c(N)nccn23)C1", "note": "(stereo not given)", "values": [
      {"measurement": "GI50", "value": "3.02 µM and 2.9 µM"},
      {"measurement": "TGI", "value": "12.8 µM and > 10 µM"}
    ]},
    {"smiles": "N#Cc1c(-c2cccs2)cc(-c2cnccn2)nc1SCC(=O)N/N=C/c1ccccc1", "values": [
      {"measurement": "GI50", "value": 3.9, "unit": "µM"},
      {"measurement": "TGI", "value": 13.9, "unit": "µM"}
    ]},
    {"smiles": "Oc1ccccc1CNCC12CC3CC(CC(C3)C1)C2", "values": [
      {"measurement": "GI50", "value": 12.8, "unit": "µM"},
      {"measurement": "TGI", "value": 31.7, "unit": "µM"}
    ]},
    {"smiles": "CCN1C(=O)N(c2ccccc2)C2NC(=S)N(/N=C/C=C/c3ccccc3)C21", "note": "(stereo not given)", "values": [
      {"measurement": "GI50", "value": 0.347, "unit": "µM"},
      {"measurement": "TGI", "value": "> 100", "unit": "µM"}
    ]},
    {"smiles": "COc1ccc(/C(=N\\O)c2cc(C)c(OC)c(C)c2)cc1O", "values": [
      {"measurement": "GI50", "value": 0.0146, "unit": "µM"},
      {"measurement": "TGI", "value": "> 100", "unit": "µM"}
    ]},
    {"smiles": "COC(=O)CCC1CCC(c2cc(F)ccc2F)(S(=O)(=O)c2ccc(Cl)cc2)CC1", "note": "(stereo not given)", "values": [
      {"measurement": "GI50", "value": 16.3, "unit": "µM"},
      {"measurement": "TGI", "value": "> 100", "unit": "µM"}
    ]},
    {"smiles": "Clc1ccc2nnnn2n1", "values": [
      {"measurement": "GI50", "value": 5.06, "unit": "µM"},
      {"measurement": "TGI", "value": 25.1, "unit": "µM"}
    ]},
    {"smiles": "COc1cc(Cl)cc(-c2nn(-c3cccc(NC(=O)Nc4cc(C(F)(F)F)cc(C(F)(F)F)c4)c3)cc2-c2ccncc2)c1", "values": [
      {"measurement": "GI50", "value": 0.349, "unit": "µM"},
      {"measurement": "TGI", "value": 3.15, "unit": "µM"}
    ]},
    {"smiles": "CCCCCCCCCCC(C(O)c1ccccc1)N1CCCCC1", "note": "(stereo not given)", "values": [
      {"measurement": "GI50", "value": 1.58, "unit": "µM"},
      {"measurement": "TGI", "value": 3.09, "unit": "µM"}
    ]},
    {"smiles": "OC(CNCC1CCCO1)Cn1c2ccc(Cl)cc2c2cc(Cl)ccc21", "note": "(stereo not given)", "values": [
      {"measurement": "GI50", "value": 1.65, "unit": "µM"},
      {"measurement": "TGI", "value": 3.2, "unit": "µM"}
    ]},
    {"smiles": "O=C(Nc1ccc2[nH]c(=S)sc2c1)Nc1ccccc1F", "values": [
      {"measurement": "GI50", "value": 17.7, "unit": "µM"},
      {"measurement": "TGI", "value": "> 100", "unit": "µM"}
    ]},
    {"smiles": "Cc1cc(NCc2cc(Nc3ccnc4cc(Cl)ccc34)ccc2F)nc(N2CCN(C)CC2)n1", "values": [
      {"measurement": "GI50", "value": 1.7, "unit": "µM"},
      {"measurement": "TGI", "value": 3.52, "unit": "µM"}
    ]},
    {"smiles": "CN(C)CC1C(=O)O[C@H]2[C@H]1CC/C(COC(=O)c1cc3ccccc3[nH]1)=C\\CC[C@@]1(C)O[C@@H]21", "note": "(stereo not given in full)", "values": [
      {"measurement": "GI50", "value": 1.44, "unit": "µM"},
      {"measurement": "TGI", "value": 3.14, "unit": "µM"}
    ]}
  ]
}
